Data published in ChEMBL document CHEMBL2429821, “A Casein kinase 1/Checkpoint kinase 1 pyrazolo-pyridine protein kinase inhibitor as novel activator of the p53 pathway” (Bioorg Med Chem Lett, 2013).
pIC50: −log10 of the molar value. Activity calls are given as the source filed them. No cut-off for these calls is given here.

Assays:
[1] = biological target: T1, Serine/threonine-protein kinase Chk1 (Homo sapiens, UniProt O14757); experiment: Inhibition of human CHK1 in presence of 20 uM ATP
T1 sequence (O14757 whole entry): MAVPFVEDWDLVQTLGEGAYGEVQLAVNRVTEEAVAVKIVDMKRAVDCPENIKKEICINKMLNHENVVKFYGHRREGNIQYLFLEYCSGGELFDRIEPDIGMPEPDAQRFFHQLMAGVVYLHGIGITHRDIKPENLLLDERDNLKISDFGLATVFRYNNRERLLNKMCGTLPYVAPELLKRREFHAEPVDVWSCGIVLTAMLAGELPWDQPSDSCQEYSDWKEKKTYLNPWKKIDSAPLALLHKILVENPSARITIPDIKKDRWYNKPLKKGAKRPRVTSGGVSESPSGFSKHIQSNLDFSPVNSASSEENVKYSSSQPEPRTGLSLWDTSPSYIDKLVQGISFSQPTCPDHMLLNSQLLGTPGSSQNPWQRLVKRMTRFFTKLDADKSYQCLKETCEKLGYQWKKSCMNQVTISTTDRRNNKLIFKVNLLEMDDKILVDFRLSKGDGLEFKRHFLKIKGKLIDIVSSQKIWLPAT

[2] = tested on: A-375; experiment: Cell cycle arrest in human A375 cells assessed as accumulation at G2-M phase at 80 uM after 48 hrs by FACS flow cytometric analysis (reference value: 17.3%); type: functional
[3] = biological target: Mitogen-activated protein kinase 14 (Homo sapiens, UniProt Q16539); experiment: Inhibition of human p38alpha MAPK in presence of 50 uM ATP
Chain of Mitogen-activated protein kinase 14 (Q16539 whole entry): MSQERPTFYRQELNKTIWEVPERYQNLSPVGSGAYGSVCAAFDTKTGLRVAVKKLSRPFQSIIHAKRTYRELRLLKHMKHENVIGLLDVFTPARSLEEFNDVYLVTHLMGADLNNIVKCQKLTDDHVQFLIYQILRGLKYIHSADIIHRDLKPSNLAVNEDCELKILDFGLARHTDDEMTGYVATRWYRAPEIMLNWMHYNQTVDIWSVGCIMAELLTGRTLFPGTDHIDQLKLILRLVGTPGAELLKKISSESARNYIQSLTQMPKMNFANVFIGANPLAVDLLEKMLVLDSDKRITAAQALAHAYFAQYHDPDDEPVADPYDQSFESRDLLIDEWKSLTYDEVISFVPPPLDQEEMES

[4] = biological target: T2, Mitogen-activated protein kinase 12 (Homo sapiens) (UniProt P53778); experiment: Inhibition of human p38gamma MAPK assessed as residual activity at 1 uM relative to control
T2 sequence (whole entry): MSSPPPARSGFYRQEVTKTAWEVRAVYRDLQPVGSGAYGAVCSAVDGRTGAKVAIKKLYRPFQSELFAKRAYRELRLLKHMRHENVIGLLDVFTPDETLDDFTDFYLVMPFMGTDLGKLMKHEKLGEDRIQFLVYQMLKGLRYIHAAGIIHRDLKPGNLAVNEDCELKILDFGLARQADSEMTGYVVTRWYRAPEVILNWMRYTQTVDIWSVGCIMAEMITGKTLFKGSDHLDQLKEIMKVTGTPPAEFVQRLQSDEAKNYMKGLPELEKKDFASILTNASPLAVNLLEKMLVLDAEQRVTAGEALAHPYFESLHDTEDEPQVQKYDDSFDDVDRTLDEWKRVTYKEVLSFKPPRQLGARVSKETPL

[5] = species: Homo sapiens; experiment: Inhibition of human VEGFR assessed as residual activity at 10 uM relative to control
[6] = species: Homo sapiens; experiment: Inhibition of human VEGFR assessed as residual activity at 1 uM relative to control
[7] = biological target: Mitogen-activated protein kinase 1 (Homo sapiens) (UniProt P28482); experiment: Inhibition of human MAPK2 assessed as residual activity at 1 uM relative to control
Chain of Mitogen-activated protein kinase 1 (Homo sapiens) (P28482 whole entry): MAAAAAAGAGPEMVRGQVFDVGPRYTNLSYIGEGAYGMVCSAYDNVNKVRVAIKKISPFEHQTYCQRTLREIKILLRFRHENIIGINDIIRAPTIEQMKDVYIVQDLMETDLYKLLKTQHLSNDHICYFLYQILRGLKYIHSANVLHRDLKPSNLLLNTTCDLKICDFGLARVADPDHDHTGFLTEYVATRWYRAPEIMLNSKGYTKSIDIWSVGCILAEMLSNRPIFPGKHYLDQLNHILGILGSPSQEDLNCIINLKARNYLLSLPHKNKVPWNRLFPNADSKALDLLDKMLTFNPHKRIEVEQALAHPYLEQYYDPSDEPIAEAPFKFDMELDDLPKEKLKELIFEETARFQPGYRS

[8] = biological target: Serine/threonine-protein kinase pim-2 (Homo sapiens) (UniProt Q9P1W9); experiment: Inhibition of human PIM2 assessed as residual activity at 10 uM relative to control
Chain of Serine/threonine-protein kinase pim-2 (Homo sapiens) (Q9P1W9 whole entry, looked up): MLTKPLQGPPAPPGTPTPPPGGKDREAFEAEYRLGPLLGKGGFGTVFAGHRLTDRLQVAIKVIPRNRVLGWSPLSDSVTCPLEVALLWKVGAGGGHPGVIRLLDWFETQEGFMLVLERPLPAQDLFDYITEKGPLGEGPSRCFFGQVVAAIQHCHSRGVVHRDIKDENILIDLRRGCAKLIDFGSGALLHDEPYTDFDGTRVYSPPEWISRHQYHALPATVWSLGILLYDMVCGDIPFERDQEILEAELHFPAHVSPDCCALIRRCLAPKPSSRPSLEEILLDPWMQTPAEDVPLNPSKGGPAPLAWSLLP

[9] = biological target: T3, Mitogen-activated protein kinase 15 (Homo sapiens) (UniProt Q8TD08); experiment: Inhibition of human ERK8 assessed as residual activity at 1 uM relative to control
T3 sequence (whole entry): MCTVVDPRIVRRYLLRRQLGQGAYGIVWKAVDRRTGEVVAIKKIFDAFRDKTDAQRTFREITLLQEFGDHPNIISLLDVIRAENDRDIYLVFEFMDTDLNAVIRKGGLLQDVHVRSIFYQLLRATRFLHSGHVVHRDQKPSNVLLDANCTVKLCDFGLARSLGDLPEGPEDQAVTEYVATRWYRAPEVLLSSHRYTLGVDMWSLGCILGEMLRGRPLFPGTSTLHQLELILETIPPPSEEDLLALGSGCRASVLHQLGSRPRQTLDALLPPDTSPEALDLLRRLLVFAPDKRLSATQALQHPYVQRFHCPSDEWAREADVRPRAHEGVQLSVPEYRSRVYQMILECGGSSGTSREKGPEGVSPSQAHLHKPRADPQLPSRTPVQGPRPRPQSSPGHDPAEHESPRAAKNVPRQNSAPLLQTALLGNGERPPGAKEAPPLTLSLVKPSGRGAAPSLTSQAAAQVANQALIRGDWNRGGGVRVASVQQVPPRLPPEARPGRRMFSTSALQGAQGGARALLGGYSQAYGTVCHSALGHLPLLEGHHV

[10] = biological target: MAP kinase-activated protein kinase 2 (Homo sapiens) (UniProt P49137); experiment: Inhibition of human MAPKAPK2 assessed as residual activity at 10 uM relative to control
Chain of MAP kinase-activated protein kinase 2 (Homo sapiens) (P49137 whole entry, looked up): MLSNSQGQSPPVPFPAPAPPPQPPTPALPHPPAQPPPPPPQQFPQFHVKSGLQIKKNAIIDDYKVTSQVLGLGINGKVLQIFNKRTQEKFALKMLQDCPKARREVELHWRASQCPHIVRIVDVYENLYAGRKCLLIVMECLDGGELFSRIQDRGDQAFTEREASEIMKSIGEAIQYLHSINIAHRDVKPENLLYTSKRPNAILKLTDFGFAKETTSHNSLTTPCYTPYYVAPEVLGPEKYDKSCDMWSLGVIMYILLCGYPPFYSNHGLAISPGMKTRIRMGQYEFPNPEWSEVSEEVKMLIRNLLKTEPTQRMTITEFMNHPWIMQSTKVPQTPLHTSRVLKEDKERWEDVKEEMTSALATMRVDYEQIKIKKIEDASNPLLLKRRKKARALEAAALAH

[11] = biological target: Mitogen-activated protein kinase 1 (Homo sapiens) (UniProt P28482); experiment: Inhibition of human MAPK2 assessed as residual activity at 10 uM relative to control
[12] = biological target: T3, Mitogen-activated protein kinase 15 (Homo sapiens); experiment: Inhibition of human ERK8 assessed as residual activity at 10 uM relative to control
[13] = biological target: T4, Casein kinase I/MDM2 (Homo sapiens) (UniProt Q00987+P48729); experiment: Inhibition of CK1-MDM2 complex in human A375 cells assessed as effect on p53 protein level at 0.2 to 80 uM after 48 hrs by immunoblotting analysis; type: cell-based; conditions: A-375
T4 sequence (P48729 whole entry, looked up): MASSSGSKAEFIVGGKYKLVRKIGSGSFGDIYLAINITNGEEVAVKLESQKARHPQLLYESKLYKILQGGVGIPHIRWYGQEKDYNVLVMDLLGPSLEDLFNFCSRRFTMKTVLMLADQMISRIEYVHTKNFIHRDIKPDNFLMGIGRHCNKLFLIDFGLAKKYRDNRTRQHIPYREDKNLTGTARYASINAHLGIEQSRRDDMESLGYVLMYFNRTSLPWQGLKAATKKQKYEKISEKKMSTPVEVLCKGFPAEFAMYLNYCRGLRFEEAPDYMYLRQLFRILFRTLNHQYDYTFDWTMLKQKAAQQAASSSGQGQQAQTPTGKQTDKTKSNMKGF
T4 sequence (Q00987 whole entry, looked up): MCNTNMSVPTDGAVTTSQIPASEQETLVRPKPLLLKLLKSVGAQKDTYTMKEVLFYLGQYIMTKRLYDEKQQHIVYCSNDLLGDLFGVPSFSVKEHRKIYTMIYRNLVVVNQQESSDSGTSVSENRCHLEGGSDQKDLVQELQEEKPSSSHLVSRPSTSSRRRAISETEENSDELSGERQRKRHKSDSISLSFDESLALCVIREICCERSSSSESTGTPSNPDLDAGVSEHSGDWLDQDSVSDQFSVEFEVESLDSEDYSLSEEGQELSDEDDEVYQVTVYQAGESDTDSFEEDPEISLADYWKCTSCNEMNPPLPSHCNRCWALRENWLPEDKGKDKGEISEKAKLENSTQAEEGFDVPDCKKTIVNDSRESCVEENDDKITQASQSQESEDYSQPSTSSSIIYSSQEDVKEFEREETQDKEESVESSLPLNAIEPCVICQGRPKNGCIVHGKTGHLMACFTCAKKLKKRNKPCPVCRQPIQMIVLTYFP

[14] = biological target: T4, Casein kinase I/MDM2 (Homo sapiens); experiment: Inhibition of CK1-MDM2 complex in human A375 cells assessed as decrease in MDM2 protein level at 0.2 to 40 uM after 24 hrs by immunoblotting analysis; type: cell-based; conditions: A-375
[15] = biological target: T4, Casein kinase I/MDM2 (Homo sapiens); experiment: Inhibition of CK1-MDM2 complex in human A375 cells assessed as effect on p21 protein level at 0.2 to 40 uM after 24 hrs by immunoblotting analysis; type: cell-based; conditions: A-375
[16] = biological target: T4, Casein kinase I/MDM2 (Homo sapiens); experiment: Inhibition of CK1-MDM2 complex in human A375 cells assessed as decrease in […] protein level at 0.2 to 5 uM after 48 hrs by immunoblotting analysis; type: cell-based; conditions: A-375
[17] = tested on: A-375; experiment: Cell cycle arrest in human A375 cells assessed as accumulation at S phase at 10 uM after 48 hrs by FACS flow cytometric analysis (reference value: 25.1%); type: functional
[18] = tested on: A-375; experiment: Cytotoxicity against human A375 cells assessed as reduction in cell number at 5 uM after 24 hrs by light microscopic analysis relative to control; type: functional, cell-based
[19] = biological target: T4, Casein kinase I/MDM2 (Homo sapiens); experiment: Inhibition of CK1-MDM2 complex in human A375 cells assessed as increase in p21 protein level at 0.2 to 5 uM after 48 hrs by immunoblotting analysis; type: cell-based; conditions: A-375
[20] = tested on: A-375; experiment: Cell cycle arrest in human A375 cells assessed as accumulation at sub-G1 phase at 5 uM after 48 hrs by FACS flow cytometric analysis (reference value: 2.17%); type: functional
[21] = tested on: A-375; experiment: Cell cycle arrest in human A375 cells assessed as accumulation at G2-M phase at 10 uM after 48 hrs by FACS flow cytometric analysis (reference value: 17.3%); type: functional
[22] = tested on: A-375; experiment: Cell cycle arrest in human A375 cells assessed as accumulation at G2-M phase at 1 uM after 48 hrs by FACS flow cytometric analysis (reference value: 17.3%); type: functional
[23] = tested on: A-375; experiment: Cell cycle arrest in human A375 cells assessed as accumulation at G0-G1 phase at 10 uM after 48 hrs by FACS flow cytometric analysis (reference value: 55.4%); type: functional

Row | Activity [4] [%] | Activity [5] [%] | Activity [6] [%] | Activity [7] [%] | Activity [8] [%] | Activity [10] [%] | Activity [11] [%] | Compound | Activity [2] [%] | Activity [9] [%] | Activity [12] [%] | further results
1 | 97.1 | 50.8 | 79.5 | 106 | 103 | 124 | 93 | CC(=O)Nc1nccc(-c2c(-c3ccccc3)noc2C)n1 | 16.2 | 91.1 | 89.5 | IC50 [1]: Not Active; pIC50 ([3]; read-out: IC50): 5.69; inhibition [13]: inactive
2 |  |  |  |  |  |  |  | CCCC(=O)Nc1n[nH]c2ncc(-c3cccnc3)cc12 |  |  |  | inhibition [14]: Active; inhibition [15]: inactive
3 | 117 | 20.3 | 54.5 | 91.7 | 58.7 | 96.4 | 82.7 | CC(=O)Nc1cccc(-c2cnc3[nH]nc(C)c3c2)c1 | 37.3 | 45.3 | 15.8 | pIC50 ([1]; read-out: IC50): 6.63; IC50 [3]: Not Active; inhibition [16]: Active; Activity [17]: 12.6%; Activity [18]: Active; inhibition [19]: Active; Activity [20]: 19.1%; Activity [21]: 12.8%; Activity [22]: 17.8%; Activity [23]: 39.6%
